Patent US5527828A, “Spin trap nitronyl hindered phenols” (priority 1995, dated 1996)
Like-named read-outs stand apart in the source and are kept apart here.

What was measured:
rat liver microsomes [1] = assay: Inhibition of lipid peroxidation (LPO) initiated by tert-butoxyl radicals in rat liver microsomes, TBA test for MDA (Example 1); settings: for relative efficiency normalized to 1.0 for PBN: from IC50 data of Example 1; for IC50: read-out: Inhibitor Concentration of 50% Inhibition (IC50), RLM (I), LPO initiated by tert-butoxyl radicals, 37° C., one hour, pH 7.4, average of 5 experiments, interpolated, estimated or measured
rat liver microsomes [2] = settings: read-out: Inhibitor Concentration of 50% Inhibition (IC50); RLM (II); LPO initiated by NADPH/cytochrome-P450 metabolism of CCl4; average of 5 experiments; interpolated
rat brain microsomes = assay: Inhibition of LPO in rat brain microsomes, TBA test for MDA production (Example 3); assay type: biochemical; settings: for IC50: rat brain microsomes; for inhibition of LPO in these systems: conclusion in words on the data obtained
Procedure: Similar tests were performed with rat brain microsomes using the TBA test for MDA production as the result of LPO.

rat liver microsomes [3] = tested on: rat liver microsomes
[4] = value in parentheses, read-out: IC50 RBM (III)

CC(C)(C)[N+]([O-])=Cc1ccccc1 [PBN, α-phenyl t-butyl nitrone, reference compound]
relative efficiency normalized to 1.0 for PBN (rat liver microsomes [1]; rat liver microsomes): 1.0
IC50 (rat liver microsomes [1]): 9800 µM
IC50 (rat liver microsomes [2]): 17500 µM
IC50 (rat brain microsomes; RBM (III), TBA test for MDA): 1000 µM

Cc1cc(C(C)(C)C)c(O)c(C(C)(C)C)c1 [BHT, butylated hydroxy toulene, reference compound]
IC50 (rat liver microsomes [3]): 55 µM
relative efficiency normalized to 1.0 for PBN (rat liver microsomes [1]; rat liver microsomes): 2000
IC50 (rat liver microsomes [1]): 5.3 µM

Cc1c(C)c2c(c(C)c1O)CCC(C)(CCCC(C)CCCC(C)CCCC(C)C)O2 (stereo not drawn) [Tocopherol, α-tocopherol, reference compound]
relative efficiency normalized to 1.0 for PBN (rat liver microsomes [1]; rat liver microsomes): 354
IC50 (rat liver microsomes [1]): 30 µM

CC(C)(C)c1cc(C=[N+]([O-])C(C)(C)C)cc(C(C)(C)C)c1O [DBBNP, 2,6-di-tert-butyl-4-(N-tert-butyl) nitronyl phenol]
effectiveness as inhibitor of LPO compared with BHT (rat liver microsomes [1]; conclusion in words, taking into account experimental precision): at least as good as BHT and probably better
relative efficiency normalized to 1.0 for PBN (rat liver microsomes [1]; rat liver microsomes): 2466
better than BHT as an inhibitor of LPO (rat liver microsomes [1]; rat liver microsomes, versus BHT): about 20%
times more effective as an inhibitor of LPO than PBN (rat liver microsomes [1]; rat liver microsomes, versus PBN): about 2000 times
IC50 (rat liver microsomes [1]): 4.3 µM
IC50 (rat liver microsomes [2]): 53 µM
IC50 (rat brain microsomes; RBM (III), TBA test for MDA): 0.7 µM
inhibition of LPO in these systems (rat brain microsomes): very good inhibitors
IC50 (rat brain microsomes; [4]): 0.7 µM

Cc1cc(C=[N+]([O-])C(C)(C)C)cc(C)c1O [DMBNP, 2,6-dimethyl-4-(N-tert-butyl) nitronyl phenol]
relative efficiency normalized to 1.0 for PBN (rat liver microsomes [1]; rat liver microsomes): 46
IC50 (rat liver microsomes [1]): 230 µM
IC50 (rat liver microsomes [2]): 710 µM
IC50 (rat brain microsomes; RBM (III), TBA test for MDA): 600 µM

Cc1cc(C=[N+]([O-])C(C)(C)CC(C)(C)C)cc(C)c1O [DMONP, 2,6-dimethyl-4-(N-tert-octyl) nitronyl phenol]
relative efficiency normalized to 1.0 for PBN (rat liver microsomes [1]; rat liver microsomes): 646
IC50 (rat liver microsomes [1]): 16.4 µM
IC50 (rat liver microsomes [2]): 60 µM
IC50 (rat brain microsomes; RBM (III), TBA test for MDA): 70 µM

CC(C)(C)CC(C)(C)[N+]([O-])=Cc1ccccc1 [OPN, N-tert-octyl C-phenyl nitrone]
relative efficiency normalized to 1.0 for PBN (rat liver microsomes [1]; rat liver microsomes): 24
IC50 (rat liver microsomes [1]): 462 µM
IC50 (rat liver microsomes [2]): 6500 µM
IC50 (rat brain microsomes; RBM (III), TBA test for MDA): 76 µM

CC(C)(C)CC(C)(C)[N+]([O-])=Cc1cc(C(C)(C)C)c(O)c(C(C)(C)C)c1 [DBONP, 2,6-di-tert-butyl-4-(N-tert-octyl) nitronyl phenol]
relative efficiency normalized to 1.0 for PBN (rat liver microsomes [1]; rat liver microsomes): 1828
IC50 (rat liver microsomes [1]): 5.8 µM
IC50 (rat liver microsomes [2]): 35 µM
IC50 (rat brain microsomes; RBM (III), TBA test for MDA): 0.3 µM
inhibition of LPO in these systems (rat brain microsomes): very good inhibitors
IC50 (rat brain microsomes; [4]): 0.3 µM
